{
  "source": "paper PMC6151956",
  "about": "(Slas Discovery, 2018)",
  "key": {"BTK in whole blood [1]": {"molecular_target": "T1, BTK in whole blood (Homo sapiens, UniProt Q06187)", "T1 sequence (Q06187 whole entry)": "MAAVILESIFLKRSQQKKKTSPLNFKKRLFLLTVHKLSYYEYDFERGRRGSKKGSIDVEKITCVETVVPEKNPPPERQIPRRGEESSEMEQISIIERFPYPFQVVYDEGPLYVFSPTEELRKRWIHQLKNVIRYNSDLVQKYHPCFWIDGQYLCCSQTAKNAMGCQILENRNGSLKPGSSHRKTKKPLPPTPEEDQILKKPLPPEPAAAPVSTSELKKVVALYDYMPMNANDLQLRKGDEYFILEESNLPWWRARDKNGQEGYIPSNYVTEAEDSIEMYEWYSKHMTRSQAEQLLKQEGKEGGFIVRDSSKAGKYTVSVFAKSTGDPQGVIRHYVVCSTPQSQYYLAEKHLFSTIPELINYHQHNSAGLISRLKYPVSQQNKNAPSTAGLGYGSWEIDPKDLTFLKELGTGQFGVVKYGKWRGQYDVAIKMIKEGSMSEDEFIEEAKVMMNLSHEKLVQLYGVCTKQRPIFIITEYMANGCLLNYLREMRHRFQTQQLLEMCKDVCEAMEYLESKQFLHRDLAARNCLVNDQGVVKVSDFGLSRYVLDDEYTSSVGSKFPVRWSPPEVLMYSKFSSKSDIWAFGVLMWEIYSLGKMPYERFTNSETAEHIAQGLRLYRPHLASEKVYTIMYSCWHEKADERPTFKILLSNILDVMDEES", "assay": "Stability of tirabrutinib-treated whole blood", "assay_type": "cell-based"}, "[2]": {"details": "phase 1 clinical study, cited from earlier work"}, "BTK in human PBMCs": {"molecular_target": "BTK in human PBMCs (Homo sapiens, UniProt Q06187)", "sequence (Q06187 whole entry)": "as above", "assay": "TR-FRET BTK occupancy assay in purified human PBMCs from healthy volunteers", "assay_type": "cell-based"}, "BTK in Ramos B cells": {"molecular_target": "BTK in Ramos B cells (Homo sapiens, UniProt Q06187)", "sequence (Q06187 whole entry)": "as above", "assay": "TR-FRET BTK occupancy assay in Ramos B cells", "assay_type": "cell-based"}, "[3]": {"molecular_target": "BTK in BMMCs and PBMCs from patients with CLL (Homo sapiens, UniProt Q06187)", "sequence (Q06187 whole entry)": "as above", "assay_type": "cell-based", "details": "110 nM tirabrutinib, 2 h ex vivo"}, "BTK in whole blood [4]": {"molecular_target": "T1, BTK in whole blood", "assay": "TR-FRET BTK occupancy assay in whole blood from healthy volunteers", "assay_type": "cell-based"}, "[5]": {"molecular_target": "Recombinant full-length human BTK (rBTK) (Homo sapiens, UniProt Q06187)", "sequence (Q06187 whole entry)": "as above", "assay": "TR-FRET BTK occupancy assay on recombinant BTK", "assay_type": "binding"}, "TEC [6]": {"tested_on": "TEC", "details": "cited from earlier work"}, "TEC [7]": {"tested_on": "TEC", "details": "cited from earlier work", "remark": "listed apart in the source"}, "[8]": {"tested_on": "interleukin-2-inducible T-cell kinase (ITK)", "details": "cited from earlier work"}, "[9]": {"tested_on": "epidermal growth factor kinase (EGFR)", "details": "cited from earlier work"}},
  "note": "Where “and” joins values, the source holds several entries; their conditions need not be identical. Identical values can stand only once. Like-named read-outs stand apart in the source and are kept apart here.",
  "data": [
    {"smiles": "CC#CC(=O)N1CCC[C@H]1c1nc(-c2ccc(C(=O)Nc3ccccn3)cc2)c2c(N)nccn12", "note": "[acalabrutinib, reference compound]", "values": [
      {"measurement": "BTK occupancy on storage at room temperature", "setting": "BTK in whole blood [1]", "result": "effect of room temperature storage was also observed"}
    ]},
    {"smiles": "CC#CC(=O)N1CC[C@@H](n2c(=O)n(-c3ccc(Oc4ccccc4)cc3)c3c(N)ncnc32)C1", "note": "[tirabrutinib, Tirabrutinib]", "values": [
      {"measurement": "response rate in CLL", "setting": "[2]; CLL", "result": 96, "unit": "%"},
      {"measurement": "response rate in MCL", "setting": "[2]; MCL", "result": 92, "unit": "%"},
      {"measurement": "response in nongerminal center DLBCL", "setting": "[2]; nongerminal center DLBCL", "result": 35, "unit": "%"},
      {"measurement": "concentration at which full BTK occupancy was achieved", "setting": "BTK in human PBMCs", "result": "500 to 1000", "unit": "nM"},
      {"measurement": "BTK occupancy on storage at 4 °C", "setting": "BTK in whole blood [1]; whole blood pretreated 2 h, then stored at 4 °C for up to 48 h", "result": "maintained at the same level for up to 48 h"},
      {"measurement": "BTK occupancy on storage at room temperature", "setting": "BTK in whole blood [1]; whole blood pretreated 2 h, then stored at room temperature (24 h and more)", "result": "significantly higher target occupancy"},
      {"measurement": "concentration at which full BTK occupancy was achieved", "setting": "BTK in Ramos B cells", "result": "500 to 1000", "unit": "nM"},
      {"measurement": "BTK occupancy", "setting": "[3]", "result": "~100% and > 80%"},
      {"measurement": "concentration at which full BTK occupancy was achieved", "setting": "BTK in whole blood [4]", "result": "500 to 1000", "unit": "nM"},
      {"measurement": "concentration at which full BTK occupancy was achieved", "setting": "[5]", "result": 100, "unit": "nM"}
    ]},
    {"smiles": "C=CC(=O)N1CCC[C@@H](n2nc(-c3ccc(Oc4ccccc4)cc3)c3c(N)ncnc32)C1", "note": "[ibrutinib]", "values": [
      {"measurement": "Selectivity for BTK over TEC", "setting": "TEC [6]", "result": 5.6, "unit": "fold"},
      {"measurement": "BTK selectivity versus TEC", "setting": "TEC [7]", "result": 156, "unit": "fold"},
      {"measurement": "BTK selectivity versus ITK", "setting": "[8]", "result": 21, "unit": "fold"},
      {"measurement": "BTK selectivity versus EGFR", "setting": "[9]", "result": 11, "unit": "fold"}
    ]}
  ]
}
